In ChEMBL document CHEMBL1134134, “Novel tricyclic benzothiazolo[2,3-c]thiadiazine antagonists of the platelet ADP receptor (P2Y(12))” (Bioorg Med Chem Lett, 2001):

How the values were obtained:
Homo sapiens = species: Homo sapiens; test: Ability to inhibit platelet aggregation; type: functional, organism-based
P2Y purinoceptor 12 [1] = biological target: T1, P2Y purinoceptor 12 (Homo sapiens, UniProt Q9H244); test: Ability to displace [3H]2-MeS-ADP from human Purinergic receptor P2Y12; type: tissue-based
T1 sequence (Q9H244 whole entry): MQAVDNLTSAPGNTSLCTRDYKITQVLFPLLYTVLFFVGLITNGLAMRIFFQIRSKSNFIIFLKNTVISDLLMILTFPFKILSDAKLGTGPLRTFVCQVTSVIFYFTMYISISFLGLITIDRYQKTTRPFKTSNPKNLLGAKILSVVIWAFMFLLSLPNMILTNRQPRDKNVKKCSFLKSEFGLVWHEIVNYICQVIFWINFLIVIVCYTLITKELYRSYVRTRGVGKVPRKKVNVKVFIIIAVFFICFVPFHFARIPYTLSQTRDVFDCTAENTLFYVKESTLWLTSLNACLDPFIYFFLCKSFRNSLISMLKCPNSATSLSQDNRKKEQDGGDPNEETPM

P2Y purinoceptor 12 [2] = biological target: T1, P2Y purinoceptor 12; test: Compound was evaluated for its ability to inhibit human Purinergic receptor P2Y12 expressed in Xenopus oocyte

IC50 (Homo sapiens) [µM] | IC50 (P2Y purinoceptor 12 [1]) [µM] | Structure (SMILES) | IC50 (P2Y purinoceptor 12 [2]) [µM]
> 120 | 77 | COc1cccc2c1N1C(O)=CS(=O)(=O)N=C1S2 | –
9.5 | – | Cc1ccc2c(c1)SC1=NS(=O)(=O)C(C(=O)CS(=O)(=O)Nc3nc4ccc(C)cc4s3)=C(O)N12 | –
64 | 35 | O=C1/C(=C(\O)CS(=O)(=O)Nc2nc3ccc(Cl)cc3s2)S(=O)(=O)N=C2Sc3cc(Cl)ccc3N12 | –
> 24 | > 50 | O=C1/C(=C(\O)CS(=O)(=O)Nc2nc3ccc(-c4ccccc4)cc3s2)S(=O)(=O)N=C2Sc3cc(-c4ccccc4)ccc3N12 | –
> 120 | 37 | O=C1/C(=C(\O)CS(=O)(=O)Nc2nc3ccc(F)cc3s2)S(=O)(=O)N=C2Sc3cc(F)ccc3N12 | –
0.8 | 1.8 | CCOC(=O)c1ccc2c(c1)SC1=NS(=O)(=O)C(C(=O)CS(=O)(=O)Nc3nc4ccc(C(=O)OCC)cc4s3)=C(O)N12 | –
50 | 35 | O=C1/C(=C(\O)CS(=O)(=O)Nc2nc3ccc([N+](=O)[O-])cc3s2)S(=O)(=O)N=C2Sc3cc([N+](=O)[O-])ccc3N12 | –
> 50 | > 120 | O=S1(=O)C=C(O)N2C(=N1)Sc1cc(OC(F)(F)F)ccc12 | –
> 120 | > 120 | O=C1/C(=C(\O)CS(=O)(=O)Nc2nc3ccc(C4CCCCC4)cc3s2)S(=O)(=O)N=C2Sc3cc(C4CCCCC4)ccc3N12 | –
> 24 | > 50 | O=C1/C(=C(\O)CS(=O)(=O)Nc2nc3ccc(Oc4ccccc4)cc3s2)S(=O)(=O)N=C2Sc3cc(Oc4ccccc4)ccc3N12 | –
2.9 | 1.1 | CS(=O)(=O)c1ccc2c(c1)SC1=NS(=O)(=O)C(C(=O)CS(=O)(=O)Nc3nc4ccc(S(C)(=O)=O)cc4s3)=C(O)N12 | –
1.5 | – | COc1ccc2c(c1)SC1=NS(=O)(=O)C(C(=O)CS(=O)(=O)Nc3nc4ccc(OC)cc4s3)=C(O)N12 | –
26 | 21 | O=C1/C(=C(\O)CS(=O)(=O)Nc2nc3ccccc3s2)S(=O)(=O)N=C2Sc3ccccc3N12 | –

Structure (SMILES) | IC50 (Homo sapiens) [µM] | IC50 (P2Y purinoceptor 12 [1]) [µM] | IC50 (P2Y purinoceptor 12 [2]) [µM]
CCOc1ccc2c(c1)SC1=NS(=O)(=O)C(C(=O)CS(=O)(=O)Nc3nc4ccc(OCC)cc4s3)=C(O)N12 | 0.18 | – | 0.04
